# Source: PMC4501179, “Tuning properties and dynamic range of type 1 vomeronasal receptors” (Frontiers in Neuroscience, 2015)
# Biological target: T1, V1rj3 (Mus musculus, UniProt Q2TBB9)
# T1 sequence (Q2TBB9 1-308): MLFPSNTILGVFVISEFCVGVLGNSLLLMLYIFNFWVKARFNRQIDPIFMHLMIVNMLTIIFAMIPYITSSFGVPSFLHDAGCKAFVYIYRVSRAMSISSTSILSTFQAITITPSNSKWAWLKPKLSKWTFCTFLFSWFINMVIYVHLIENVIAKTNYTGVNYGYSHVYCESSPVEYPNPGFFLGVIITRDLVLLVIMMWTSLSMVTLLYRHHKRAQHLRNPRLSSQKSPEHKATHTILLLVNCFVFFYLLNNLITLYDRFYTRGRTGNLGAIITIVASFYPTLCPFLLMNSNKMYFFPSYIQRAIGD
# Assay: GCaMP2 calcium imaging of VNO slices from transgenic mice ectopically expressing V1rj3
row,Structure (SMILES),GCaMP2 calcium imaging of VNO slices from transgenic mice ectopically expressing
1,"C[C@]12CC[C@@H]3c4ccc(O)cc4CC[C@H]3[C@@H]1CC[C@@H]2OS(=O)(=O)O [E1103, 1,3, 5(10)-estratrien-3, 17β-diol 17-sulfate]",10^−10 M
2,"C[C@]12CC[C@H]3[C@@H](CC=C4C[C@@H](OS(=O)(=O)O)CC[C@@]43C)[C@@H]1CC[C@@H]2OS(=O)(=O)O [A7864, 5-androsten-3β, 17β-diol-disulfate]",10^−5 M
3,"C[C@]12CC[C@@H]3c4ccc(OS(=O)(=O)O)cc4CC[C@H]3[C@@H]1CC[C@@H]2O [E1100, 17β-estradiol 3-sulfate]",10^−5 M
4,"C[C@]12CC[C@@H]3c4ccc(OS(=O)(=O)O)cc4CC[C@H]3[C@@H]1CC[C@@H]2OS(=O)(=O)O [E1050, 1, 3, 5(10)-estratrien-3, 17β-diol disulfate]",10^−10 M
